Laboratory results: US9517227B2, “Dihydropyrazoles” (Merck Patent GmbH, priority 2011, dated 2016)

Assays:
[1] = target: T1, FSHR (Homo sapiens, UniProt P23945); experiment: EC50 of cyclic AMP production in CHO FSHR cells + EC20 FSH (Assay A); type: cell-based; conditions: CHO-FSHR-LUC cells, 0.265 pM FSH (EC20), cAMP HTRF, 1 h
T1 construct: expressed in transfected cells; host or cells: CHO (Cho-FSHR-LUC-1-1-43)
T1 sequence (P23945 18-695): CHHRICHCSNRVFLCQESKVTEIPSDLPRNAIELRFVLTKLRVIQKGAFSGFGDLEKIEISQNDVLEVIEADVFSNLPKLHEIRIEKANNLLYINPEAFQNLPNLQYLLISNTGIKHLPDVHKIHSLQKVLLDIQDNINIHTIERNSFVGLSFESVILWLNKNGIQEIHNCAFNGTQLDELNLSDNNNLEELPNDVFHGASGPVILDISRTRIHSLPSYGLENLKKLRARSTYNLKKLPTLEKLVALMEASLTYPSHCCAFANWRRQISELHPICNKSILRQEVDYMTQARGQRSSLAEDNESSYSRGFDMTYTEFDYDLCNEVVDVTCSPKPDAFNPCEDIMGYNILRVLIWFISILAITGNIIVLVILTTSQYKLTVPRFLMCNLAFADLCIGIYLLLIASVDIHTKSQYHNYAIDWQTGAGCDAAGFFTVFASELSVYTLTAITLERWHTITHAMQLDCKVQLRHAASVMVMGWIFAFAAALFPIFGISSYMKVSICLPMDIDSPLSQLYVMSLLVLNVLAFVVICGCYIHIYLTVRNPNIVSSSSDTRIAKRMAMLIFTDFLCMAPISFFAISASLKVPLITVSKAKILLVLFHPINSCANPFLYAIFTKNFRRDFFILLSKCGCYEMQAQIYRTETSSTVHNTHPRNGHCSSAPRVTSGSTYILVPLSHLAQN
Procedure: EC50 of Cyclic AMP Production in CHO FSHR Cells+EC20 FSH (Assay A)
2500 Cho-FSHR-LUC-1-1-43 cells were plated per well in 5 μl of phenol red free DMEM/F12+1% FBS. Cells were plated in 384 well, solid white low volume plates (Greiner 784075) by Multidrop. Cells were assayed by adding 100 μl of 2×EC20 FSH/IBMX in DMEM/F12+0.1% BSA) by Multidrop to 2 μl of test compound stamped in 384 well plates (compounds are diluted 1:50). The final FSH concentration was 0.265 pM, and the final IBMX concentration was 200 μM. The compound plate map was as follows: Column 1: 2 μl of DMSO; Column 2: 2 μl of DMSO; Columns 3-12 and 13-24: 2 μl of test compound, diluted 1:4 in 100% DMSO, or 2 μl of FSH, diluted 1:4 in DMEM/F12+0.1% BSA. The starting concentration for FSH was 50 nM (final concentration was 0.5 nM). Furthermore, Column 23 contained 2 μl of EC100 FSH reference (100×) (diluted in DMEM/F12+0.1% BSA) at a final concentration of 0.5 nM, and Column 24 contained 2 μl of 1 mM AS707664/2 reference compound 2. 5 μl of compound+EC20 FSH mixture were transferred to cell plates (1:2 dilution into 5 μl of cell media). The plates were incubated at 37° C. for 1 h. 10 μl of mixed HTRF (CisBio #62AM4PEC) reagents were added per well and incubated at room temperature for 1 h. The plates were read on Envision using the cAMP HTRF—low volume 384 well protocol. The readout was the calculated fluorescence ratio (665 nm/620 nm).

[2] = target: T2, follicle-stimulating hormone (FSH) receptor (Rattus norvegicus, UniProt P20395); experiment: Rat granulosa EC50 FSH (Assay B); type: cell-based; conditions: rat granulosa cells; for EC50: per Yanofsky et al. 2006
T2 construct: endogenous in cells; host or cells: rat granulosa cells
T2 sequence (P20395 18-692): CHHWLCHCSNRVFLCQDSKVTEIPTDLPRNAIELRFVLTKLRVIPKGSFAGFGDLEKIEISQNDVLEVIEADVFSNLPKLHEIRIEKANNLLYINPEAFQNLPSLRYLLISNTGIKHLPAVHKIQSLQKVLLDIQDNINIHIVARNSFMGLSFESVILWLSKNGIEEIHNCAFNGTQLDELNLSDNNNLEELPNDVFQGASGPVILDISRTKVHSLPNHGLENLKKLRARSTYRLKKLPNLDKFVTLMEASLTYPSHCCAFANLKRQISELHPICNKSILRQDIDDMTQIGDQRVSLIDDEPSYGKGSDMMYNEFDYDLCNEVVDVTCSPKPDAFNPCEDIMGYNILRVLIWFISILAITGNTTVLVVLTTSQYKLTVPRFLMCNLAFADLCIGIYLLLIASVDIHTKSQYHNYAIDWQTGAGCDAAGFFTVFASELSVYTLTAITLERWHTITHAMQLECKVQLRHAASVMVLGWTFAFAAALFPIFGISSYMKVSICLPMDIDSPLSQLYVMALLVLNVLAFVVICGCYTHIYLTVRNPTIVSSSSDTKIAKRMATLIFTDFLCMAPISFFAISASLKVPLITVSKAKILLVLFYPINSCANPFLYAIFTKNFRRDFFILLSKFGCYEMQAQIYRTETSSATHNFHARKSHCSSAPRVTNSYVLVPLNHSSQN
Procedure: Rat Granulosa EC50 FSH (Assay B)
The assay was performed pursuant to the teaching of Yanofsky et al. (2006) Allosteric activation of the follicle-stimulating hormone (FSH) receptor by selective, nonpeptide agonists. JBC 281(19): 13226-13233, which is incorporated by reference in the disclosure of the invention.

SMILES | EC50 [1] | EC50 [2] | Assay B: value given in % (rat granulosa) ([2]; meaning of % not stated)
COc1ccc(C2=NN(C(=O)c3cccc(C(F)(F)F)c3)CC2)cc1OC [Compound 64] | 11 µM | 348 nM | 
COc1ccc(C2=NN(C(=O)c3ccc(Oc4ccccc4)cc3)C(C)(C)C2)cc1OC [Compound 230, [3-(3,4-Dimethoxy-phenyl)-5,5-dimethyl-4,5-dihydro-pyrazol-1-yl]-(4-phenoxy-phenyl)-methanone] | 2.2 µM | 128 nM | 
COc1ccc(C2=NN(C(=O)c3cccc(C)c3)CC2)cc1OC [Compound 65] | 21 µM | 5090 nM | 
COc1ccc(C2=NN(C(=O)c3ccc(F)c(C(F)(F)F)c3)C(C)(C)C2)cc1OC [Compound 236, [3-(3,4-Dimethoxy-phenyl)-5,5-dimethyl-4,5-dihydro-pyrazol-1-yl]-(4-fluoro-3-trifluoromethyl-phenyl)-methanone] | 25.3 µM | 1730 nM | 
COc1ccc(C2=NN(C(=O)c3cccc(C#N)c3)C(C)(C)C2)cc1OC [Compound 132, 3-[3-(3,4-Dimethoxy-phenyl)-5,5-dimethyl-4,5-dihydro-pyrazole-1-carbonyl]-benzonitrile] | 41.5 µM | 25 nM | 
COc1ccc(C2=NN(C(=O)c3ccc(Cl)cc3)C(C)(C)C2)cc1OC [Compound 247, (4-Chloro-phenyl)-[3-(3,4-dimethoxy-phenyl)-5,5-dimethyl-4,5-dihydro-pyrazol-1-yl]-methanone] | 35.2 µM |  | 
COc1ccc(C2=NN(C(=O)c3cccc(OC(C)(F)F)c3)CC2)cc1OC [Compound 67] | 21 µM | 814 nM | 
COc1ccc(C2=NN(C(=O)c3ccc4c(c3)OCO4)C(C)(C)C2)cc1OC [Compound 131, [1,3]Dioxol-5-yl-[3-(3,4-dimethoxy-phenyl)-5,5-dimethyl-4,5-dihydro-pyrazol-1-yl]-methanone] | 23 µM | 413 nM | 
CSc1ccc(C2=NN(C(=O)c3ccc4c(c3)OCO4)CC2)cc1 [Compound 205, Benzo[1,3]dioxol-5-yl-[3-(4-methylsulfanyl-phenyl)-4,5-dihydro-pyrazol-1-yl]-methanone] | 30 µM |  | 
COc1ccc(C2=NN(C(=O)c3cccc(Cl)c3)CC2)cc1OC [Compound 62] | 6.49 µM | 98.1 nM | 
COc1ccc(C(OC)C(=O)N2CCC(c3ccc(OC)c(OC)c3)=N2)cc1 (stereo not shown) [Compound 275] | 24 µM |  | 
O=C(c1ccc2c(c1)OCO2)N1CCC(c2ccc(OC(F)(F)F)cc2)=N1 [Compound 199, Benzo[1,3]dioxol-5-yl-[3-(4-trifluoromethoxy-phenyl)-4,5-dihydro-pyrazol-1-yl]methanone] | 34.3 µM |  | 
COc1ccc(C2=NN(C(=O)c3ccc(C(F)(F)F)c(F)c3)CC2)cc1OC [Compound 75] | 5.7 µM |  | 
COc1ccc(C2=NN(C(=O)c3cccc(F)c3)CC2)c(OC)c1OC [Compound 223] | 31.2 µM |  | 
COc1ccc(C2=NN(C(=O)C(OC)c3cccc(C(F)(F)F)c3)CC2)cc1OC (stereo not shown) [Compound 277] | 2 µM |  | 
COc1ccc(C2=NN(C(=O)c3ccc4c(c3)OCO4)CC2)cc1OC [Compound 3] | 40.3 µM | 656 nM | 
COc1ccc(C2=NN(C(=O)Cc3cccc(F)c3)C(C)(C)C2)cc1OC [Compound 255, 1-[3-(3,4-Dimethoxy-phenyl)-5,5-dimethyl-4,5-dihydro-pyrazol-1-yl]-2-(3-fluoro-phenyl)-ethanone] | 35 µM |  | 

SMILES | EC50 [1] | EC50 [2] | Assay B: value given in % (rat granulosa) ([2]; meaning of % not stated)
O=C(c1cccc(F)c1)N1CCC(c2ccc(C(F)(F)F)cc2)=N1 [Compound 207] | 44.5 µM |  | 
COc1ccc(C2=NN(C(=O)c3ccccc3F)C(C)(C)C2)cc1OC [Compound 228, [3-(3,4-Dimethoxy-phenyl)-5,5-dimethyl-4,5-dihydro-pyrazol-1-yl]-(2-fluoro-phenyl)-methanone] |  | 134 nM | 
COc1ccc(C2=NN(C(=O)C(OC)c3ccc(C)cc3)CC2)cc1OC (stereo not shown) [Compound 282] | 27 µM |  | 
COc1ccc(C2=NN(C(=O)c3cccc(F)c3)CC2(C)C)cc1OC [Compound 149, [3-(3,4-Dimethoxy-phenyl)-4,4-dimethyl-4,5-dihydro-pyrazol-1-yl]-(3-fluoro-phenyl)-methanone] | 0.382 µM |  | 
CSc1ccc(C2=NN(C(=O)c3cccc(F)c3)CC2)cc1 [Compound 204, (3-Fluoro-phenyl)-[3-(4-methylsulfanyl-phenyl)-4,5-dihydro-pyrazol-1-yl]methanone] | 8.25 µM |  | 
COc1ccc(C2=NN(C(=O)c3cccc(Oc4ccccc4)c3)C(C)(C)C2)cc1OC [Compound 229, [3-(3,4-Dimethoxy-phenyl)-5,5-dimethyl-4,5-dihydro-pyrazol-1-yl]-(3-phenoxy-phenyl)-methanone] |  | 32 nM | 
Cn1ccc2cc(C3=NN(C(=O)c4cccc(F)c4)CC3)ccc21 [Compound 185] | 4.5 µM |  | 
COc1ccc(C2=NN(C(=O)[C@H](OC)c3ccccc3)CC2)cc1OC [Compound 290] |  | 5400 nM | 
Cc1cccc(C2=NN(C(=O)c3cccc(F)c3)CC2)c1 [Compound 179, (3-Fluoro-phenyl)-(3-m-tolyl-4,5-dihydro-pyrazol-1-yl)-methanone] | 34 µM |  | 
COc1ccc(C2=NN(C(=O)c3ccc(Br)cc3)C(C)(C)C2)cc1OC [Compound 257, (4-Bromo-phenyl)-[3-(3,4-dimethoxy-phenyl)-5,5-dimethyl-4,5-dihydro-pyrazol-1-yl]-methanone] | 33.2 µM |  | 
CCc1ccc(C(=O)N2N=C(c3ccc(OC)c(OC)c3)CC2(C)C)cc1 [Compound 259, [3-(3,4-Dimethoxy-phenyl)-5,5-dimethyl-4,5-dihydro-pyrazol-1-yl]-(4-ethyl-phenyl)-methanone] | 30 µM |  | 
CC(C)(C)Oc1ccc(C2=NN(C(=O)c3cccc(F)c3)CC2)cc1 [Compound 210] | 7.39 µM |  | 
COc1ccc(C2=NN(C(=O)C(OC)c3ccc(Cl)cc3)CC2)cc1OC (stereo not shown) [Compound 274] | 25 µM |  | 
COc1ccc(C2=NN(C(=O)c3cccc(Cl)c3)C(C)(C)C2)cc1OC [Compound 251, (3-Chloro-phenyl)-[3-(3,4-dimethoxy-phenyl)-5,5-dimethyl-4,5-dihydro-pyrazol-1-yl]-methanone] | 27.1 µM |  | 
COc1ccc(C2=NN(C(=O)C(OC)c3ccccc3)CC2)cc1OC (stereo not shown) [Compound 291] |  |  | 144.00%
COc1ccc(C2=NN(C(=O)c3cccc(F)c3)CC2)cc1S(=O)(=O)NCc1ccccc1 [Compound 214] | 1.1 µM |  | 
O=C(c1cccc(F)c1)N1CCC(c2ccc3c(c2)OCCO3)=N1 [Compound 189] | 28 µM |  | 
